What was measured:
human M4 receptor [1] = molecular target: T1, human M4 receptor (Homo sapiens, UniProt P08173); assay: Calcium flux assay using fluorescent imaging (M4 PAM FLIPR assay); type: cell-based; set-up: expressed in transfected cells; host or cells: CHO (monoclonal line, clone 2); conditions: Table 1; CHO cells expressing human M4+Gqi5; acetylcholine EC20
T1 sequence (P08173 1-479): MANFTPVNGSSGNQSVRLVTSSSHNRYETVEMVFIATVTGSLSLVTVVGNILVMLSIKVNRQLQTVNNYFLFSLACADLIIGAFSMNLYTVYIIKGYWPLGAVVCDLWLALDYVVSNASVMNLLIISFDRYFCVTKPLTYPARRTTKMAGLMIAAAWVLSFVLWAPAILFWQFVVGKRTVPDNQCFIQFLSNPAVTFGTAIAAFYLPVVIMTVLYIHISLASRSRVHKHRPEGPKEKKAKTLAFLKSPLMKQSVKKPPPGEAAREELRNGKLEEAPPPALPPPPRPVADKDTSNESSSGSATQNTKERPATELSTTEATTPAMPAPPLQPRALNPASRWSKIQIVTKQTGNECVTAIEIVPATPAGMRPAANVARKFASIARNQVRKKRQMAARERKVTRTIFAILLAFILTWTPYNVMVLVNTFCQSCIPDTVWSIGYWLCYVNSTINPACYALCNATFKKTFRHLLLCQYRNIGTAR
Experimental: CHO cells were transfected with expression plasmid encoding the human M4 receptor and a Gqi5 construct to redirect Gi signaling to calcium. Stable cells were cloned by limiting dilution to yield a monoclonal cell line expressing human M4+Gqi5 (clone 2). The stable cells were grown in DMEM containing 10% FBS, 200 ug/ml Geneticin and 800 ug/ml Hygromycin at 37° C. in a 10% CO2 incubator at 95% humidity.
Calcium Flux Assay Using Fluorescent Imaging (“M4 PAM FLIPR” Assay)
On the afternoon before the assay, cells were plated at a density of 50,000 cells/well into black 96 well plates with clear bottoms to yield a confluent monolayer the next day. Hanks balanced salt solution, without phenol red, containing 20 mM HEPES (pH 7.3) and 2.5 mM probenecid (assay buffer) was prepared fresh for each experiment. Compound dilutions were made using a Beckman Biomek 2000 laboratory automation workstation, in assay buffer. The dye-loading buffer consisted of a final concentration of 2 μM Fluo-4-AM (dissolved in DMSO and pluronic acid) and 65 μg/ml amidoblack in assay buffer. The existing culture media was removed from the wells and 100 μl of the dye-loading buffer was added to each well and incubated for approximately 90 min at 37° C. in a 5% CO2 incubator at 95% humidity.
Calcium flux in the dye-loaded cells was measured with the fluorescence reader Hamamatsu FDSS 7000. To test compounds as agonists, compound addition (25 μl) was made 10 s into the fluorescent measurements and fluorescent response was recorded for 3 minutes. The fluorescence data was expressed as percentage of the fluorescence obtained by an EC100 concentration (3 μM) of the endogenous full agonist acetylcholine. Each test compound concentration-response curve was constructed using a four parameter logistic equation in Microsoft Excel XLFit as follows:
Y=Minimum+((Maximum−Minimum)/(1+10^(LogEC50−X)nH)).
The concentration of agonist that produced a half-maximal response is represented by the EC50 value. Maximum and minimum are the maximum and minimum fluorescence signal in % respectively. nH is the Hill slope.
To measure positive allosteric modulator activity 25 μl of an EC20 concentration of the endogenous agonist acetylcholine is added to the cells already pre-incubated with the test compound for 15 minutes.
The M4 PAM dose response is constructed using the agonist dose-response equation above. The concentration of PAM that produced a half-maximal response is represented by the EC50 value and the maximum signal measured is the PAM efficacy expressed in % of the EC100 (3 μM) acetylcholine response. • cAMP Assay for M4 Positive Allosteric Modulators (“M4 PAM cAMP” Assay)

human M4 receptor [2] = molecular target: T1, human M4 receptor; assay: cAMP assay for M4 positive allosteric modulators (M4 PAM cAMP assay); type: cell-based; set-up: expressed in transfected cells; host or cells: CHO-K1; conditions: Table 1; CHO-K1 cells expressing human M4; forskolin 7.5 μM + acetylcholine EC20 (0.2 nM)
Experimental: The potency of M4 PAMs was determined using a cell-based cyclic adenosine monophosphate assay. The assay was performed with CHO-Kl cells stably expressing untagged human M4 receptor and cAMP was quantified using the Nano-TRF Detection Assay kit (Roche, Cat. No. 05214386) as described in the kit instructions. The cells were grown in Ham's F-12 Nutrient mix supplemented with 10% FBS and 200 μg/ml geneticin until they reached 80% confluency. The cells were washed with PBS, detached with accutase and resuspended in assay buffer consisting of HBSS and 0.1% BSA. They were then seeded in black 384-well plates (Corning, Cat. No. 3764) at a density of 20,000 cells/20 μl per well until the addition of compounds.
Test compounds were serially diluted 1:2 in 100% DMSO and spotted in 384-well plates at 0.5 μl/well. The compounds were then diluted in water containing IBMX (Sigma, Cat. No. 17018) and a sample (5 μl) was added to the cells for 15 minutes at 37° C./5% CO2. After this incubation the cells were stimulated with a combination of forskolin (7.5 μM) and acetylcholine EC20 (0.2 nM) in assay buffer for 30 minutes at 37° C./5% CO2. The assay was stopped by adding cAMP detection mix (15 μl/well, containing detergents for cell lysis) for one hour at RT.
The test plates were read using a SpectraMax i3x reader (Molecular Devices). The exported raw data was used to calculate the FRET signal based on the P-factor as per cAMP kit instructions. The data was normalized to the activity of acetylcholine plus forskolin, with 2 nM of acetylcholine plus 7.5 μM forskolin defined as 100% activity. Dose response curves were fitted to the percent activity data of the compounds using a sigmoidal dose response model (XLfit, IDBS) and the data were reported as EC50 and percent efficacy.

EC50 (human M4 receptor [1]) | EC50 (human M4 receptor [2]) | SMILES
388 nM | 482 nM | Cc1ncc(N2CC[C@@H](C(=O)N3Cc4nc(C)c(Cl)c(C)c4C3)C2)cn1 [Example 31, (3-chloro-2,4-dimethyl-5,7-dihydropyrrolo[3,4-b]pyridin-6-yl)-[(3R)-1-(2-methylpyrimidin-5-yl)pyrrolidin-3-yl]methanone]
2200 nM | 8130 nM | COc1ccnc(N2CC[C@@H](C(=O)N3Cc4nc(C)c(Cl)c(C)c4C3)C2)n1 [Example 48, (3-chloro-2,4-dimethyl-5,7-dihydropyrrolo[3,4-b]pyridin-6-yl)-[(3R)-1-(4-methoxypyrimidin-2-yl)pyrrolidin-3-yl]methanone]
306 nM | 346 nM | Cc1nc2c(c(C)c1Cl)CN(C(=O)[C@@H]1CCN(c3cncc(C(F)F)c3)C1)C2 [Example 15, (3-chloro-2,4-dimethyl-5,7-dihydropyrrolo[3,4-b]pyridin-6-yl)-[(3R)-1-[5-(difluoromethyl)-3-pyridyl]pyrrolidin-3-yl]methanone]
527 nM | 1160 nM | Cc1cc(N2CC[C@@H](C(=O)N3Cc4nc(C)c(Cl)c(C)c4C3)C2)cnn1 [Example 52, (3-chloro-2,4-dimethyl-5,7-dihydropyrrolo[3,4-b]pyridin-6-yl)-[(3R)-1-(6-methylpyridazin-4-yl)pyrrolidin-3-yl]methanone]
394 nM | 405 nM | Cc1ncncc1N1CC[C@@H](C(=O)N2Cc3nc(C)c(Cl)c(C)c3C2)C1 [Example 37, (3-chloro-2,4-dimethyl-5,7-dihydropyrrolo[3,4-b]pyridin-6-yl)-[(3R)-1-(4-methylpyrimidin-5-yl)pyrrolidin-3-yl]methanone]
1210 nM | 7290 nM | Cc1nc2c(c(C)c1Cl)CN(C(=O)[C@@H]1CCN(c3cncc(C4CC4)n3)C1)C2 [Example 43, (3-chloro-2,4-dimethyl-5,7-dihydropyrrolo[3,4-b]pyridin-6-yl)-[(3R)-1-(6-cyclopropylpyrazin-2-yl)pyrrolidin-3-yl]methanone]
247 nM | 444 nM | Cc1nc2c(c(C)c1Cl)CN(C(=O)[C@@H]1CCN(c3cc(C(F)F)ncn3)C1)C2 [Example 54, (3-chloro-2,4-dimethyl-5,7-dihydropyrrolo[3,4-b]pyridin-6-yl)-[(3R)-1-[6-(difluoromethyl)pyrimidin-4-yl]pyrrolidin-3-yl]methanone]
490 nM | 616 nM | Cc1cc(N2CC[C@@H](C(=O)N3Cc4nc(C)c(Cl)c(C)c4C3)C2)ccn1 [Example 5, (3-chloro-2,4-dimethyl-5,7-dihydropyrrolo[3,4-b]pyridin-6-yl)-[(3R)-1-(2-methyl-4-pyridyl)pyrrolidin-3-yl]methanone]
804 nM | 1370 nM | COc1cnc(N2CC[C@@H](C(=O)N3Cc4nc(C)c(Cl)c(C)c4C3)C2)cn1 [Example 45, (3-chloro-2,4-dimethyl-5,7-dihydropyrrolo[3,4-b]pyridin-6-yl)-[(3R)-1-(5-methoxypyrazin-2-yl)pyrrolidin-3-yl]methanone]
2350 nM | 5270 nM | Cc1cnc(N2CC[C@@H](C(=O)N3Cc4nc(C)c(Cl)c(C)c4C3)C2)nc1 [Example 8, (3-chloro-2,4-dimethyl-5,7-dihydropyrrolo[3,4-b]pyridin-6-yl)-[(3R)-1-(5-methylpyrimidin-2-yl)pyrrolidin-3-yl]methanone]
1360 nM | 1070 nM | Cc1nc2c(c(C)c1Cl)CN(C(=O)[C@@H]1CCN(c3ccc(C(F)(F)F)nc3)C1)C2 [Example 9, (3-chloro-2,4-dimethyl-5,7-dihydropyrrolo[3,4-b]pyridin-6-yl)-[(3R)-1-[6-(trifluoromethyl)-3-pyridyl]pyrrolidin-3-yl]methanone]
906 nM | 1820 nM | Cc1nc2c(c(C)c1Cl)CN(C(=O)[C@@H]1CCN(c3cnc(C(F)(F)F)cn3)C1)C2 [Example 47, (3-chloro-2,4-dimethyl-5,7-dihydropyrrolo[3,4-b]pyridin-6-yl)-[(3R)-1-[5-(trifluoromethyl)pyrazin-2-yl]pyrrolidin-3-yl]methanone]
549 nM | 166 nM | COc1cncc(N2CC[C@@H](C(=O)N3Cc4nc(C)c(Cl)c(C)c4C3)C2)c1 [Example 18, (3-chloro-2,4-dimethyl-5,7-dihydropyrrolo[3,4-b]pyridin-6-yl)-[(3R)-1-(5-methoxy-3-pyridyl)pyrrolidin-3-yl]methanone]
486 nM | 80 nM | COCc1nc2c(c(C)c1Cl)CN(C(=O)[C@@H]1CCN(c3cccnc3)C1)C2 [Example 56, [3-chloro-2-(methoxymethyl)-4-methyl-5,7-dihydropyrrolo[3,4-b]pyridin-6-yl]-[(3R)-1-(3-pyridyl)pyrrolidin-3-yl]methanone]
99 nM | 283 nM | COCc1nc2c(c(C)c1Cl)CN(C(=O)[C@@H]1CCN(c3ccnc(C(F)F)c3)C1)C2 [Example 57, [3-chloro-2-(methoxymethyl)-4-methyl-5,7-dihydropyrrolo[3,4-b]pyridin-6-yl]-[(3R)-1-[2-(difluoromethyl)-4-pyridyl]pyrrolidin-3-yl]methanone]
1030 nM | 1010 nM | COc1ccc(N2CC[C@@H](C(=O)N3Cc4nc(C)c(Cl)c(C)c4C3)C2)cn1 [Example 10, (3-chloro-2,4-dimethyl-5,7-dihydropyrrolo[3,4-b]pyridin-6-yl)-[(3R)-1-(6-methoxy-3-pyridyl)pyrrolidin-3-yl]methanone]
240 nM | 230 nM | Cc1nc2c(c(C)c1Cl)CN(C(=O)[C@@H]1CCN(c3cncc(OC(F)F)c3)C1)C2 [Example 17, (3-chloro-2,4-dimethyl-5,7-dihydropyrrolo[3,4-b]pyridin-6-yl)-[(3R)-1-[5-(difluoromethoxy)-3-pyridyl]pyrrolidin-3-yl]methanone]
1800 nM | 1720 nM | Cc1nc2c(c(C)c1Cl)CN(C(=O)[C@@H]1CCN(c3cnc(N(C)C)nc3)C1)C2 [Example 36, (3-chloro-2,4-dimethyl-5,7-dihydropyrrolo[3,4-b]pyridin-6-yl)-[(3R)-1-[2-(dimethylamino)pyrimidin-5-yl]pyrrolidin-3-yl]methanone]

— patent US20220289746A1, “PYRROLIDINE DERIVATIVES” (Hoffmann-La Roche Inc., priority 2019, published 2022)
